Test results: patent EP0182135A2, “Novel bis-(substituted amino) anthraquinones” (AMERICAN CYANAMID COMPANY, priority 1984, dated 1986)
Counter-ions that a name gives are not always drawn.

Key:
[1] = test system: lymphocytic leukemia P388; experiment: Lymphocytic Leukemia P388 Test; format: in vivo, DBA/2 mice
Description: Lymphocytic Leukemia P388 Test
The animals used were DBA/2 mice all of one sex, weighing a minimum of 17 g and all within a 3 g weight range. There were 5 or 6 animals per test group. The tumor transplant was by intraperitoneal injection of 0.1 ml of dilute ascitic fluid containing 10^6 cells of lymphocytic leukemia P388. The test compounds were administered intraperitoneally on days 1, 5 and 9 (relative to tumor inoculation) at various doses. The animals were weighed and survivors were recorded on a regular basis for 30 days. The median survival time and the ratio of survival time for treated (T)/control (C) animals were calculated. The positive control compound was 1,4-dihydroxy-5,8-bis--[ [2-(2-hydroxyethylamino)ethyl ]amino]anthraquinone, dihydrochloride (U.S. Patent 4,197,249) given at the indicated doses by injection.

melanotic melanoma B16 = experiment: Melanotic Melanoma B16 Test; format: in vivo, C57BC/6 mice
Description: The animals used were C57BC/6 mice, all of the same sex, weighing a minimum of 17 g and all within a 3 g weight range. There were normally 10 animals per test group. A 1.0 g portion of melanotic melanoma B16 tumor was homogenized in 10 ml of cold balanced salt solution and a 0.5 ml aliquot of the homogenate was implanted intraperitoneally into each of the test mice. The test compounds were administered intraperitoneally on days one through nine (relative to tumor inoculation) at various doses. The animals were weighed and survivors recorded on a regular basis for 60 days. The median survival time and the ratio of survival time for treated (T)/control (C) animals were calculated. The positive control compound was 1,4-dihydroxy-5,8-bis[[2-(2-hydroxyethylamino)-ethyl]amino]anthraquinone, dihydrochloride (U.S. Patent 4,197,249) given at the indicated doses by injection.

[2] = Dose 3 mg/kg intraperitoneally on days 1, 5 and 9, 3 mg/kg
[3] = Dose 12 mg/kg intraperitoneally on days 1, 5 and 9, 12 mg/kg
[4] = Dose 50 mg/kg intraperitoneally on days 1, 5 and 9, 50 mg/kg
[5] = Dose 200 mg/kg intraperitoneally on days 1, 5 and 9
[6] = Dose 25 mg/kg intraperitoneally on days one through nine
[7] = Dose 100 mg/kg intraperitoneally on days one through nine
[8] = Dose 3 mg/kg intraperitoneally on days 1, 5 and 9, dihydrochloride, 3 mg/kg
[9] = Dose 12 mg/kg intraperitoneally on days 1, 5 and 9, dihydrochloride, 12 mg/kg
[10] = Dose 50 mg/kg intraperitoneally on days 1, 5 and 9, dihydrochloride, 50 mg/kg
[11] = Dose 0.8 mg/kg intraperitoneally on days one through nine
[12] = Dose 3 mg/kg intraperitoneally on days one through nine
[13] = Dose 12 mg/kg intraperitoneally on days one through nine
[14] = Dose 3 mg/kg intraperitoneally on days 1, 5 and 9
[15] = Dose 12 mg/kg intraperitoneally on days 1, 5 and 9
[16] = Dose 50 mg/kg intraperitoneally on days 1, 5 and 9
[17] = Dose 50 mg/kg intraperitoneally on days one through nine

For `CN(C)CCCNC(=S)N(CCO)CCNc1ccc(NCCN(CCO)C(=S)NCCCN(C)C)c2c1C(=O)c1c(O)ccc(O)c1C2=O` [N,N"-[(9,10-Dihydro-5,8-dihydroxy-9,10-dioxo-1,4-anthracenediyl)bis(imino-2,1-ethanediyl)]bis[N'-[3-(dimethylamino)propyl]-N-(2-hydroxyethyl)]thiourea], the “Median Survival” value [1, 2] was 13 days, the “T/C x 100 (%)” value [1, 2] was 124% and the “Median Survival” value [1, 3] was 13.5 days. The “T/C x 100 (%)” value [1, 3] was 129%, the “Median Survival” value [1, 4] was 19.5 days and the “T/C x 100 (%)” value [1, 4] was 186%. The “Median Survival” value [1, 5] was 23 days, the “T/C x 100 (%)” value [1, 5] was 219% and the “Median Survival” value (melanotic melanoma B16; [6]) was 27.5 days. For the same molecule, the “T/C x 100 (%)” value (melanotic melanoma B16; [6]) was 146%, the “Median Survival” value (melanotic melanoma B16; [7]) was 42 days and the “T/C x 100 (%)” value (melanotic melanoma B16; [7]) was 222%.
`CN(C)CCCNC(=S)N(CCO)CCNc1ccc(NCCN(CCO)C(=S)NCCCN(C)C)c2c1C(=O)c1c(O)ccc(O)c1C2=O` [N,N"-[(9,10-Dihydro-5,8-dihydroxy-9,10-dioxo-1,4-anthracenediyl)bis(imino-2,1-ethanediyl)]bis[N'-[3-(dimethylamino)propyl]-N-(2-hydroxyethyl)]thiourea, dihydrochloride] was tested, and the “Median Survival” value [1, 8] was 15 days, the “T/C x 100 (%)” value [1, 8] was 136% and the “Median Survival” value [1, 9] was 19.5 days. For the same molecule, the “T/C x 100 (%)” value [1, 9] was 177%, the “Median Survival” value [1, 10] was 22.5 days and the “T/C x 100 (%)” value [1, 10] was 205%. For the same molecule, the “Median Survival” value (melanotic melanoma B16; [11]) was 24.5 days, the “T/C x 100 (%)” value (melanotic melanoma B16; [11]) was 114% and the “Median Survival” value (melanotic melanoma B16; [12]) was 33.5 days. The “T/C x 100 (%)” value (melanotic melanoma B16; [12]) was 156%, the “Median Survival” value (melanotic melanoma B16; [13]) was >60 days and the “T/C x 100 (%)” value (melanotic melanoma B16; [13]) was >279%.
`COC(=O)C(=O)NCCNc1ccc(NCCNC(=O)C(=O)OC)c2c1C(=O)c1c(O)ccc(O)c1C2=O` [2,2[(9-10-Dihydro-5,8-dihydroxy-9,10-dioxo-1,4-anthracenediyl)bis(imino-2,1-ethanediylimino)]-bis[2-oxoacetic acid]dimethyl ester] was tested, and the “Median Survival” value [1, 14] was 16 days, the “T/C x 100 (%)” value [1, 14] was 145% and the “Median Survival” value [1, 15] was 19.5 days. For the same molecule, the “T/C x 100 (%)” value [1, 15] was 177%, the “Median Survival” value [1, 16] was 20.5 days and the “T/C x 100 (%)” value [1, 16] was 186%. The “Median Survival” value [1, 5] was 23 days, the “T/C x 100 (%)” value [1, 5] was 209% and the “Median Survival” value (melanotic melanoma B16; [11]) was 23.5 days. For the same molecule, the “T/C x 100 (%)” value (melanotic melanoma B16; [11]) was 155%, the “Median Survival” value (melanotic melanoma B16; [12]) was 26.5 days and the “T/C x 100 (%)” value (melanotic melanoma B16; [12]) was 129%. The “Median Survival” value (melanotic melanoma B16; [13]) was 31.5 days, the “T/C x 100 (%)” value (melanotic melanoma B16; [13]) was 154% and the “Median Survival” value (melanotic melanoma B16; [17]) was >60 days. The “T/C x 100 (%)” value (melanotic melanoma B16; [17]) was >293%.
